Laboratory results published in BindingDB's records for patent US11111252 (Duquesne University of The Holy Spirit, 2021).

Target: T1, Dihydrofolate reductase (Pneumocystis jirovecii, UniProt Q9UUP5)
T1 sequence (Q9UUP5 whole entry): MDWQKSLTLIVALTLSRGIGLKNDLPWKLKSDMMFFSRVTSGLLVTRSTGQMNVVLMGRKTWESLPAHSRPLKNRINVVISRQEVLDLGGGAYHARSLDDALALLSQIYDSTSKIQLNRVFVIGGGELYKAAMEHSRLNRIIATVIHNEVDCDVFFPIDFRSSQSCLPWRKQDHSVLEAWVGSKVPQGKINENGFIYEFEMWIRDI
Test: Kinase Inhibition Assay

SMILES | IC50 [µM]
COc1ccc(Sc2sc3nc(N)nc(N)c3c2C)cc1OC [US11111252, Compound 1] | 0.26
COc1ccc(Sc2c(C)c3c(N)nc(N)nc3n2C)cc1OC [US11111252, Compound 9] | 0.234
